Values after ≈ are worked out from the molar mass of the structure shown. Values joined by “and” are separate entries in the source; they are usually repeats but may differ in a detail not shown here. Equal entries are not always repeated. Where two headings read alike, the source gives them in different places. *1 amine or outer side, *2 acyl side, *3 side chain or, on linkers, in order; H or OH if unused. Where a SMILES comes first, the peptide text is derived from it. [ ]: non-standard residue; d: D form. X1 = C#CCn1cc(C[C@H](N[*:1])C(=O)[*:2])c2ccccc21; NMeLeu(5-OH,4R) = CN[C@@H](C[C@@H](C)CO)C(=O)O; Phe(βR-OMe) = CO[C@H](c1ccccc1)[C@H](N)C(=O)O; Trp(1-Me) = Cn1cc(C[C@H](N)C(=O)O)c2ccccc21; NMeL = CN[C@@H](CC(C)C)C(=O)O; Pra = C#CC[C@H](N)C(=O)O
Experiments:
[1] = format: in vitro ADME, Mice; conditions: for Microsomal Stability Mice: clearance in microsomes
Summary of the method: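 Compound (1 µmol/l) was incubated at 37 °C with 0.5 mg/ml liver microsomes in 100 mM Tris-HCl pH 7.5, 6.5 mM MgCl2 and 1 mM NADPH. Reactions were quenched with acetonitrile at several time points and parent remaining quantified by HPLC-MS/MS; first-order half-lives were converted to clearance as %Qh via the well-stirred model.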

Klebsiella pneumoniae = experiment: MIC ESKAPES panel, Klebsiella pneumoniae; format: cell-based
Procedure: Minimum inhibitory concentration (MIC) against ESKAPES panel of Gram positive and Gram negative pathogens (Enterococcus faecium, Staphylococcus aureus, Klebsiella pneumoniae, Acinetobacter baumannii, Pseudomonas aeruginosa, Enterobacter cloacae and Salmonella typhimurium [ESKAPES panel]) were determined at the FNDR by the standard broth dilution method [CLSI, M100]. […] Mueller Hinton broth (MHB) medium was used to grow ESKAPES panel strains. The individual cultures were added as 200 μL (inoculum of 3–7 × 10^5 cfu/ml) to the respective assay plates in each well to all columns, except the media control (200 μL of medium). […] The assay plates were incubated at 37 °C, and the results were noted on the 2nd day as turbidometric readout. The clear wells indicated inhibition of growth, while the turbid wells indicated uninhibited growth.

[2] = system: replicating Mtb H37Rv cells; experiment: Resazurin growth assay, replicating Mtb H37Rv (Supplementary Fig. 2); format: cell-based, Mycobacterium tuberculosis; conditions: three replicate columns
[3] = system: Mtb (katG del) ATCC 35822; experiment: microbe, parasite or virus in culture; format: cell-based
Mycobacterium fortuitum = experiment: microbe, parasite or virus in culture; format: cell-based
[4] = Gram-Negative Bacteria, replicates 1-3
[5] = Klebsiella pneumoniae, Gram negative, n = 3 well replicates
[6] = Klebsiella pneumoniae, Gram-Negative Bacteria, replicates 1-3
[7] = Mycobacterium tuberculosis, ATCC35822, M. tuberculosis ATCC 35822, single well replicates
[8] = Mycobacterium tuberculosis, ATCC35822, Mtb (katG del) ATCC 35822, mean ± SD, n = 3 well replicates
[9] = Experiment 1, read-out: MIC Mycobacterium fortuitum
[10] = Experiment 2, three replicate columns
[11] = Experiment 2, three replicate columns, read-out: MIC (µM) Mycobacterium fortuitum
[12] = Mycolicibacterium fortuitum, Experiment 1, read-out: MIC Mycobacterium fortuitum
[13] = Mycolicibacterium fortuitum, Experiment 2, three replicate columns, read-out: MIC (µM) Mycobacterium fortuitum
[14] = Mycolicibacterium fortuitum, Experiment 2, three replicate columns, read-out: MIC (µg/ml) Mycobacterium fortuitum
[15] = Mycolicibacterium fortuitum, mean ± SD, read-out: MIC Mycobacterium fortuitum

| SMILES | Microsomal Stability Mouse QH [1] [%] | Microsomal Stability Mice [1] [%Qh] | MIC (Klebsiella pneumoniae; [4]) [µM] | MIC (Klebsiella pneumoniae; [5]) [µM] | MIC (Klebsiella pneumoniae; [6]) | Supplementary Figure 2 dose-response value, replicating H37Rv cells ([2]; Conc. 0.0488281 µM) | Supplementary Figure 2 dose-response value, replicating H37Rv cells ([2]; Conc. 0.0976562 µM) | Supplementary Figure 2 dose-response value, replicating H37Rv cells ([2]; Conc. 0.195312 µM) | Supplementary Figure 2 dose-response value, replicating H37Rv cells ([2]; Conc. 0.390625 µM) | Supplementary Figure 2 dose-response value, replicating H37Rv cells ([2]; Conc. 0.78125 µM) | Supplementary Figure 2 dose-response value, replicating H37Rv cells ([2]; Conc. 1.5625 µM) | Supplementary Figure 2 dose-response value, replicating H37Rv cells ([2]; Conc. 3.125 µM) | MIC [3, 7] [µM] | MIC [3, 8] [µM] | MIC (µg/ml) Mycobacterium fortuitum (Mycobacterium fortuitum; [10]) [µg/mL] | MIC (Mycobacterium fortuitum; [11]) [µM] | MIC (Mycobacterium fortuitum; [12]) | MIC (Mycobacterium fortuitum; [13]) [µM] | MIC (Mycobacterium fortuitum; [14]) [µg/mL] | MIC (Mycobacterium fortuitum; [15]) [µM] | other results |
| --- | --- | --- | --- | --- | --- | --- | --- | --- | --- | --- | --- | --- | --- | --- | --- | --- | --- | --- | --- | --- | --- |
| C#CCn1cc(C[C@@H]2NC(=O)[C@H](C(C)C)NC(=O)[C@H](CC(C)C)N(C)C(=O)[C@H](C(C)C)NC(=O)[C@H]([C@H](OC)c3ccccc3)NC(=O)[C@H](C)NC(=O)[C@H](C[C@@H](C)CO)N(C)C2=O)c2ccccc21 [Compound 5] (cyclo(A[Phe(βR-OMe)]V[NMeL]V[X1][NMeLeu(5-OH,4R)])) | >88.400 | > 88 | >50 | > 50 | > 47 µg/mL | 98.0652 and 83.9808 and 80.51 | 93.0506 and 83.7138 and 106.369 | 80.9008 and 79.6239 and 83.1102 | 100.805 and 94.8498 and 103.432 | 90.0247 and 88.21 and 77.7086 | 89.1967 and 85.691 and 102.875 | 81.2645 and 83.4662 and 77.6892 | 0.781 (≈ 0.735 µg/mL) | 0.8 (≈ 0.753 µg/mL) | 5.88 (≈ 6.25 µM) | 6.25 | 5.9 µg/mL | 6.25 | 5.88 | 6.3 | Supplementary Figure 2 dose-response value, replicating H37Rv cells ([2]; Conc. 6.25 µM): 79.2563 and 81.2993 and 97.3301; Supplementary Figure 2 dose-response value, replicating H37Rv cells ([2]; Conc. 25 µM): 23.3248 and 18.2173 and 22.7212; Supplementary Figure 2 dose-response value, replicating H37Rv cells ([2]; Conc. 50 µM): 9.562 and 6.199 and 9.0701; Supplementary Figure 2 dose-response value, replicating H37Rv cells ([2]; Conc. 100 µM): 10.3547 and 8.316 and 5.8624; MIC (Mycobacterium fortuitum; [9]): 6.3 µM |
| C#CC[C@@H]1NC(=O)[C@H](CC(C)C)N(C)C(=O)[C@H](C(C)C)NC(=O)[C@H]([C@H](OC)c2ccccc2)NC(=O)[C@H](C)NC(=O)[C@H](C[C@@H](C)CO)N(C)C(=O)[C@H](Cc2cn(C)c3ccccc23)NC1=O [Compound 10] (cyclo(A[Phe(βR-OMe)]V[NMeL][Pra][Trp(1-Me)][NMeLeu(5-OH,4R)])) | >88.400 | > 88 | >50 | > 50 | > 45.6 µg/mL | 96.6607 and 85.0023 and 97.6783 | 91.646 and 99.7213 and 83.381 | 93.9637 and 88.7594 and 93.2053 | 95.6392 and 103.405 and 93.9985 | 94.5519 and 83.8686 and 95.6043 | 94.1959 and 100.812 and 95.4766 | 91.4989 and 87.2697 and 84.1472 | 1.56 (≈ 1.42 µg/mL) | 1.6 (≈ 1.46 µg/mL) | 11.41 (≈ 12.5 µM) | 12.5 | 11.4 µg/mL | 12.5 | 11.4 | 12.5 | Supplementary Figure 2 dose-response value, replicating H37Rv cells ([2]; Conc. 6.25 µM): 90.8682 and 96.9509 and 92.2612; Supplementary Figure 2 dose-response value, replicating H37Rv cells ([2]; Conc. 25 µM): 58.5243 and 57.8085 and 53.4206; Supplementary Figure 2 dose-response value, replicating H37Rv cells ([2]; Conc. 50 µM): 10.7146 and 27.4379 and 10.7068; Supplementary Figure 2 dose-response value, replicating H37Rv cells ([2]; Conc. 100 µM): 10.7533 and 7.29 and 10.5908; MIC (Mycobacterium fortuitum; [9]): 12.5 µM |
| COc1c(N2C[C@@H]3CCCN[C@@H]3C2)c(F)cc2c(=O)c(C(=O)O)cn(C3CC3)c12 [Moxifloxacin, reference compound] |  |  |  | 1.3 | 1.25 µM and 0.5 µg/mL |  |  |  |  |  |  |  | 0.31 (≈ 0.124 µg/mL) | 0.3 (≈ 0.12 µg/mL) | 0.06 (≈ 0.149 µM) | 0.15 | 0.0747 µM and 0.03 µg/mL | 0.15 | 0.06 | 0.1 | MIC ([3]; M. tuberculosis ATCC 35822, single well replicates): 0.31 µM (≈ 0.124 µg/mL) |
| CO[C@H](c1ccccc1)[C@@H]1NC(=O)[C@H](C)NC(=O)[C@H](C[C@@H](C)CO)N(C)C(=O)[C@H](Cc2cn(Cc3cn(CCOCCn4cc(Cn5cc(C[C@@H]6NC(=O)[C@H](C(C)C)NC(=O)[C@H](CC(C)C)N(C)C(=O)[C@H](C(C)C)NC(=O)[C@H]([C@H](OC)c7ccccc7)NC(=O)[C@H](C)NC(=O)[C@H](C[C@@H](C)CO)N(C)C6=O)c6ccccc65)nn4)nn3)c3ccccc23)NC(=O)[C@H](C(C)C)NC(=O)[C@H](CC(C)C)N(C)C(=O)[C@H](C(C)C)NC1=O [Compound 6] | 42.900 | 43 |  |  |  |  |  |  |  |  |  |  |  |  |  |  |  |  |  |  |  |
